# Activity calls are given as the source filed them. Rule as the data show it, for most assays here: actives have a measured Kd and inactives only a lower limit.
# What was measured:
# [1] = molecular target: Protein kinase C beta type (Homo sapiens, UniProt P05771)
# [2] = molecular target: Casein kinase II subunit alpha' (Homo sapiens, UniProt P19784)
# [3] = molecular target: Serine/threonine-protein kinase/endoribonuclease IRE1 (Homo sapiens, UniProt O75460)
# [4] = molecular target: T1, Serine/threonine-protein kinase NLK (Homo sapiens, UniProt Q9UBE8)
# T1 sequence (Q9UBE8 whole entry): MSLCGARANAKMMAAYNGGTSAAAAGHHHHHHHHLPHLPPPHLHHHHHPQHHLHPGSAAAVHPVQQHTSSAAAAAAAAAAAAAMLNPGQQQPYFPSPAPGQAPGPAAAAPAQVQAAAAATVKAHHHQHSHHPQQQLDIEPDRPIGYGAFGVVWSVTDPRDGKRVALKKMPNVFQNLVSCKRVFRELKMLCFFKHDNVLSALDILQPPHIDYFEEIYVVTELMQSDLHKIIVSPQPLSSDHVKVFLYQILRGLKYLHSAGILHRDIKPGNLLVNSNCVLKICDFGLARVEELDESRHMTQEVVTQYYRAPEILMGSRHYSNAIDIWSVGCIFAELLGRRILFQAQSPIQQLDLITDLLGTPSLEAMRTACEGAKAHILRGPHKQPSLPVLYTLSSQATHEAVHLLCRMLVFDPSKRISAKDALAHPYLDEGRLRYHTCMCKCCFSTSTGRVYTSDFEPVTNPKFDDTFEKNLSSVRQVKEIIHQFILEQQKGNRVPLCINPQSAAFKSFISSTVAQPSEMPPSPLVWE
# [5] = molecular target: Dual specificity tyrosine-phosphorylation-regulated kinase 1A (Homo sapiens, UniProt Q13627)
# [6] = molecular target: T2, Bifunctional phosphoribosylaminoimidazole carboxylase/phosphoribosylaminoimidazole succinocarboxamide synthetase (Homo sapiens, UniProt P22234)
# T2 sequence (P22234 whole entry): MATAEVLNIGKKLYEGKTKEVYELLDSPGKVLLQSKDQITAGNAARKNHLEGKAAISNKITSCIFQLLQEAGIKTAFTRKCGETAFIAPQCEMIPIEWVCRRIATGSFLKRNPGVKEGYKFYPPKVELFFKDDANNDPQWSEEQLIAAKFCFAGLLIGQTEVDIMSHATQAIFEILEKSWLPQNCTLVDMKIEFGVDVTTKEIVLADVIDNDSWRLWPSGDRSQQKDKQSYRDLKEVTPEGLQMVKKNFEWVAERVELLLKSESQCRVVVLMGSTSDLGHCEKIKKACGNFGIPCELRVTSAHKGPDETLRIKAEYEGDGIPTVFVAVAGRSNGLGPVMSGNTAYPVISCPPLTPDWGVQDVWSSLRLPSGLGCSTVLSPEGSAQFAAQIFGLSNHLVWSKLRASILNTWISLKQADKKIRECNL
# [7] = molecular target: T3, Bone morphogenetic protein receptor type-2 (Homo sapiens, UniProt Q13873)
# T3 sequence (Q13873 whole entry): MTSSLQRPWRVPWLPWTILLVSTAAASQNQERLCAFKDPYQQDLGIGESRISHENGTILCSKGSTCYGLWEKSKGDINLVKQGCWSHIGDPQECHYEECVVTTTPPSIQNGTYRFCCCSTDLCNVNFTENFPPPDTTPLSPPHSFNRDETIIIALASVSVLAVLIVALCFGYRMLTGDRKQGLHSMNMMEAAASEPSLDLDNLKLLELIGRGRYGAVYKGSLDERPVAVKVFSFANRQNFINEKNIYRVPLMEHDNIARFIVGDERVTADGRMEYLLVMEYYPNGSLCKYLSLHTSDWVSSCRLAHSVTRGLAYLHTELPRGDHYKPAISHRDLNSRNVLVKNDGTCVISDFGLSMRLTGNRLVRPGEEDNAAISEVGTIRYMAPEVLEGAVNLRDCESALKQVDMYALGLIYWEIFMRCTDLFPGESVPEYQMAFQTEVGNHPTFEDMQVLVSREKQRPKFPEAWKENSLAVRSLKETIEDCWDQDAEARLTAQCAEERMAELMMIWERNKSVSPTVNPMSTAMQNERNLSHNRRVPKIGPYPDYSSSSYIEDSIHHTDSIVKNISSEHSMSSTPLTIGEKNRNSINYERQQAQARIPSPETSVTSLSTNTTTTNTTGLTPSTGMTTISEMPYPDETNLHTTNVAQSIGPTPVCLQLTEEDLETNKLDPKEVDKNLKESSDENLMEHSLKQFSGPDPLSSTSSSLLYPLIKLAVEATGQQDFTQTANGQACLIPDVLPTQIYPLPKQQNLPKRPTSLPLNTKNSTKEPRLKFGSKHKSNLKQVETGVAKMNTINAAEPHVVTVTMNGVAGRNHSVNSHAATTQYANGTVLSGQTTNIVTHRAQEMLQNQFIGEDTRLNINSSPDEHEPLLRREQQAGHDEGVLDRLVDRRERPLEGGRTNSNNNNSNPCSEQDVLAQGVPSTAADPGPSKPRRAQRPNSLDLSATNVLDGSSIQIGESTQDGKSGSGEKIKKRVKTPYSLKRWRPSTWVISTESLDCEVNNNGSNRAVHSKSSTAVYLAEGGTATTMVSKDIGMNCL
# dCTP pyrophosphatase 1 = molecular target: T4, dCTP pyrophosphatase 1 (Homo sapiens, UniProt Q9H773)
# T4 sequence (Q9H773 whole entry): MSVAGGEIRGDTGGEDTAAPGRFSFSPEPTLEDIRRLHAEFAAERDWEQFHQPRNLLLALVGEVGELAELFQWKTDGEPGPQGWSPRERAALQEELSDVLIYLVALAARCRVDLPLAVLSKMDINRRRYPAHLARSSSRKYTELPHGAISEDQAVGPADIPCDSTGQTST
# [8] = molecular target: Casein kinase I isoform epsilon (Homo sapiens, UniProt P49674)
# Casein kinase I isoform epsilon, sequence (P49674 whole entry, canonical isoform): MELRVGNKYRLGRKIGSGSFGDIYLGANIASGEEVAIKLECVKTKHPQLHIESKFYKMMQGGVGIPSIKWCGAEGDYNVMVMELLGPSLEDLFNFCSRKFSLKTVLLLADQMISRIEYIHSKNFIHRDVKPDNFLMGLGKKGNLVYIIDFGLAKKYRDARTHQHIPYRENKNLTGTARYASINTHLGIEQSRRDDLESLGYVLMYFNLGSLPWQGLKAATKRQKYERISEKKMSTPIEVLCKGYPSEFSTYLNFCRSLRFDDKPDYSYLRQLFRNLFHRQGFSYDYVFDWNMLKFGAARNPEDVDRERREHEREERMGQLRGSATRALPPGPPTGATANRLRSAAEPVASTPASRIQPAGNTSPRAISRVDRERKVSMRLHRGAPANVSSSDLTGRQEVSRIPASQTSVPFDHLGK
# [9] = molecular target: T5, Electron transfer flavoprotein subunit beta (Homo sapiens, UniProt P38117)
# T5 sequence (P38117 whole entry): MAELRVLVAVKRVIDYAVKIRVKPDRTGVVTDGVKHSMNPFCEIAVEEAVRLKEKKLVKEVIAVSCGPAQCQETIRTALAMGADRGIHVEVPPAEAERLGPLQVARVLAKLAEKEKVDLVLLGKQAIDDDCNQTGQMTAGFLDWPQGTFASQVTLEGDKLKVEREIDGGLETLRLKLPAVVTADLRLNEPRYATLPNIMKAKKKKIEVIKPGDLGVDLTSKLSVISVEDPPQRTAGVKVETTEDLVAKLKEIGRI
# Also: in the data inactive means no Kd found up to 30 µM.
# Casein kinase II subunit alpha', sequence (P19784 whole entry): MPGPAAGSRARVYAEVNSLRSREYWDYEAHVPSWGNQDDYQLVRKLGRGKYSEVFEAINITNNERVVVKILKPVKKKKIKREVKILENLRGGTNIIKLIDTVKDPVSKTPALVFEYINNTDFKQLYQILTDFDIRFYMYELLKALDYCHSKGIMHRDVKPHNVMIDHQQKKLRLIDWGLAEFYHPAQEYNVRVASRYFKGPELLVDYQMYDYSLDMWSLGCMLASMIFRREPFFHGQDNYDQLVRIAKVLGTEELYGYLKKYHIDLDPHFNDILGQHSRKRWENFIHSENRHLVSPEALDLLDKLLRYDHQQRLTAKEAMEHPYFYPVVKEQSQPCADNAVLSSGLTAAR
# Serine/threonine-protein kinase/endoribonuclease IRE1, sequence (O75460 whole entry): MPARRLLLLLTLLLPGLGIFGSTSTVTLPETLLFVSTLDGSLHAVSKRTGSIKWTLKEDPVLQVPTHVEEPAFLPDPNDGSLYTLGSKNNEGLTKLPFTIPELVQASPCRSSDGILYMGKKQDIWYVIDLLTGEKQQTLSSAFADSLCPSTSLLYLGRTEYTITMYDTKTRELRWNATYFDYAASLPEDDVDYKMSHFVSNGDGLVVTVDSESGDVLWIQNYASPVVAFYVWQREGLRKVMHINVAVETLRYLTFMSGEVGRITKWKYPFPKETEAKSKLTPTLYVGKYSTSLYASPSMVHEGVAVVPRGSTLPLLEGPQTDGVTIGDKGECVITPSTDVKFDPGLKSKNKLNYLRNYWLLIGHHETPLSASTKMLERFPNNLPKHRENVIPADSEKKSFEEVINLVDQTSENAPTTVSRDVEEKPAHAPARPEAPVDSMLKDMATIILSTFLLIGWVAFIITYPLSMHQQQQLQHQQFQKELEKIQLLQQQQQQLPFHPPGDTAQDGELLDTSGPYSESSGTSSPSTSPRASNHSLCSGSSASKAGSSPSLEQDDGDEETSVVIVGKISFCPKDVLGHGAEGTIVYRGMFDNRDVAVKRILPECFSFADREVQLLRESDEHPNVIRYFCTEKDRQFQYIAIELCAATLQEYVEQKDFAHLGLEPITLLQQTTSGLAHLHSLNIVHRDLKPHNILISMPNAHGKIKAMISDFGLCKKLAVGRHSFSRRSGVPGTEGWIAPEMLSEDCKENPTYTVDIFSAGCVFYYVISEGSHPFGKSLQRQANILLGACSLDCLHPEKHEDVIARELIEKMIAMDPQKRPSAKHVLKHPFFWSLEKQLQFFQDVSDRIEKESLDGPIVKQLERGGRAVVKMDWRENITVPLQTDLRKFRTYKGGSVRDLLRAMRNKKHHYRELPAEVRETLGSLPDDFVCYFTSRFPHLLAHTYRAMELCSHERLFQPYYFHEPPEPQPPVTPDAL
# Protein kinase C beta type, sequence (P05771 whole entry): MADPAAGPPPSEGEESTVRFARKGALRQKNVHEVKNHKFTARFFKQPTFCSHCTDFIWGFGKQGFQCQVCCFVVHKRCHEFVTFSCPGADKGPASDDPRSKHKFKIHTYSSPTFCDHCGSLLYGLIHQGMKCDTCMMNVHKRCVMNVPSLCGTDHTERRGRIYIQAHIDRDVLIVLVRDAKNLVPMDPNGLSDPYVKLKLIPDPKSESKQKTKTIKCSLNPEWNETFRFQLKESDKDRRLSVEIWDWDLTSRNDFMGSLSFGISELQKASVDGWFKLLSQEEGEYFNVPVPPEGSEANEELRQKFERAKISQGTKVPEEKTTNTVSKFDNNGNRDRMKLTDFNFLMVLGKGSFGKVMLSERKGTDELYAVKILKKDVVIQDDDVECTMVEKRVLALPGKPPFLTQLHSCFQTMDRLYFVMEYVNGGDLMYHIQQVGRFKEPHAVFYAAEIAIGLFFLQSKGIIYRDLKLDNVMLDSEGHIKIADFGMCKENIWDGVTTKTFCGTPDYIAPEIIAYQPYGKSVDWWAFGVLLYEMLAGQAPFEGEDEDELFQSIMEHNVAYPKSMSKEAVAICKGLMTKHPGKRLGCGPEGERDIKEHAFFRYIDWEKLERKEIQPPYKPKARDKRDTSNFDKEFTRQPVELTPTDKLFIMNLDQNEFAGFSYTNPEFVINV
Structure (SMILES),Kd [1],Kd [2],Kd [3],Kd [4],Kd [5],Kd [6],Kd [7],Kd (dCTP pyrophosphatase 1),Kd [8],Kd [9]
CC[C@H](Nc1ncnc2[nH]cnc12)c1nc2cccc(F)c2c(=O)n1-c1ccccc1 [IDELALISIB],> 30 µM (inactive),> 30 µM (inactive),> 30 µM (inactive),> 30 µM (inactive),> 30 µM (inactive),> 30 µM (inactive),> 30 µM (inactive),> 30 µM (inactive),> 30 µM (inactive),> 30 µM (inactive)
Cc1ccc(-n2nc(C(C)(C)C)cc2NC(=O)NCc2cc(F)ccc2Oc2ccc3c(cnn3CCO)c2)cc1 [PEXMETINIB],> 30 µM (inactive),> 30 µM (inactive),> 30 µM (inactive),> 30 µM (inactive),> 30 µM (inactive),> 30 µM (inactive),> 30 µM (inactive),> 30 µM (inactive),> 30 µM (inactive),> 30 µM (inactive)
CNC(=O)c1cc(Oc2ccc(NC(=O)Nc3ccc(Cl)c(C(F)(F)F)c3)c(F)c2)ccn1 [REGORAFENIB],> 30 µM (inactive),> 30 µM (inactive),> 30 µM (inactive),> 30 µM (inactive),> 30 µM (inactive),> 30 µM (inactive),> 30 µM (inactive),> 30 µM (inactive),> 30 µM (inactive),> 30 µM (inactive)
CN(C)C(=O)c1cc2cnc(Nc3ccc(N4CCNCC4)cn3)nc2n1C1CCCC1 [RIBOCICLIB],> 30 µM (inactive),> 30 µM (inactive),> 30 µM (inactive),> 30 µM (inactive),> 30 µM (inactive),> 30 µM (inactive),> 30 µM (inactive),> 30 µM (inactive),> 30 µM (inactive),> 30 µM (inactive)
CNC(=O)CN1CCC(Oc2cc3c(Nc4cccc(Cl)c4F)ncnc3cc2OC)CC1 [SAPITINIB],> 30 µM (inactive),> 30 µM (inactive),> 30 µM (inactive),> 30 µM (inactive),> 30 µM (inactive),> 30 µM (inactive),> 30 µM (inactive),> 30 µM (inactive),> 30 µM (inactive),> 30 µM (inactive)
C[C@@H](c1ccc2nccn2c1)n1nnc2ncc(-c3cnn(C)c3)nc21 [SAVOLITINIB],> 30 µM (inactive),> 30 µM (inactive),> 30 µM (inactive),> 30 µM (inactive),> 30 µM (inactive),> 30 µM (inactive),> 30 µM (inactive),> 30 µM (inactive),> 30 µM (inactive),> 30 µM (inactive)
C[C@@H]1CN(Cc2ccc(F)cc2)[C@@H](C)CN1C(=O)c1cc2c(C(=O)C(=O)N(C)C)cn(C)c2cc1Cl [TALMAPIMOD],> 30 µM (inactive),> 30 µM (inactive),> 30 µM (inactive),> 30 µM (inactive),> 30 µM (inactive),> 30 µM (inactive),> 30 µM (inactive),> 30 µM (inactive),> 30 µM (inactive),> 30 µM (inactive)
CN1CCC(COc2cnc(-c3cccc(Cn4nc(-c5cccc(C#N)c5)ccc4=O)c3)nc2)CC1 [TEPOTINIB],> 30 µM (inactive),> 30 µM (inactive),> 30 µM (inactive),> 30 µM (inactive),> 30 µM (inactive),> 30 µM (inactive),> 30 µM (inactive),> 30 µM (inactive),> 30 µM (inactive),> 30 µM (inactive)
O=c1sn(-c2cccc3ccccc23)c(=O)n1Cc1ccccc1 [TIDEGLUSIB],> 30 µM (inactive),> 30 µM (inactive),> 30 µM (inactive),> 30 µM (inactive),> 30 µM (inactive),> 30 µM (inactive),> 30 µM (inactive),> 30 µM (inactive),> 30 µM (inactive),> 30 µM (inactive)
CC(=O)Nc1cccc(-n2c(=O)n(C3CC3)c(=O)c3c(Nc4ccc(I)cc4F)n(C)c(=O)c(C)c32)c1 [TRAMETINIB],> 30 µM (inactive),> 30 µM (inactive),> 30 µM (inactive),> 30 µM (inactive),> 30 µM (inactive),> 30 µM (inactive),> 30 µM (inactive),> 30 µM (inactive),> 30 µM (inactive),> 30 µM (inactive)

# Other lines, results leading:
Kd [1],Kd [2],Kd [3],Kd [4],Kd [5],Kd [6],Kd [7],Kd (dCTP pyrophosphatase 1),Kd [8],Kd [9],Structure (SMILES)
> 30 µM (inactive),> 30 µM (inactive),> 30 µM (inactive),> 30 µM (inactive),> 30 µM (inactive),> 30 µM (inactive),> 30 µM (inactive),> 30 µM (inactive),> 30 µM (inactive),> 30 µM (inactive),Cn1cc(-c2ccc3nnc(C(F)(F)c4ccc5ncccc5c4)n3n2)cn1 [JNJ-38877605]
> 30 µM (inactive),> 30 µM (inactive),> 30 µM (inactive),> 30 µM (inactive),> 30 µM (inactive),> 30 µM (inactive),> 30 µM (inactive),> 30 µM (inactive),> 30 µM (inactive),> 30 µM (inactive),O=C(O)[C@]1(Cc2cccc(Nc3nccs3)n2)CC[C@@H](Oc2cccc(Cl)c2F)CC1 [MK-5108]
> 30 µM (inactive),> 30 µM (inactive),> 30 µM (inactive),> 30 µM (inactive),> 30 µM (inactive),> 30 µM (inactive),> 30 µM (inactive),> 30 µM (inactive),> 30 µM (inactive),> 30 µM (inactive),CNC(=O)c1ccc(C)c(-n2c(C)cc(OCc3ccc(F)cc3F)c(Br)c2=O)c1 [PH-797804]
> 30 µM (inactive),7.92 µM (active),> 30 µM (inactive),> 30 µM (inactive),> 30 µM (inactive),> 30 µM (inactive),> 30 µM (inactive),> 30 µM (inactive),> 30 µM (inactive),> 30 µM (inactive),CN1CCC(CNc2ccc3ncc(-c4cccc(OC(F)(F)F)c4)n3n2)CC1 [SGI-1776]
